From US20260070902A1, “SULFONYL DERIVATIVES AS CCR6 INHIBITORS” (Hoffmann-La Roche Inc., priority 2022, published 2026)

biological target: T1, human CCR6 (Homo sapiens, UniProt P51684); assay: Human CCR6-CRE reporter assay; type: cell-based; design: The second construct contained the open reading frame of human CCR6 in the pUNO1 backbone; host or cells: 293FT cells; settings: relative -Log IC50; 293FT cells transfected with human CCR6 and CRE-luciferase reporter; 6 μM Forskolin, 6 nM CCL20; 5 h
T1 sequence (P51684 1-374): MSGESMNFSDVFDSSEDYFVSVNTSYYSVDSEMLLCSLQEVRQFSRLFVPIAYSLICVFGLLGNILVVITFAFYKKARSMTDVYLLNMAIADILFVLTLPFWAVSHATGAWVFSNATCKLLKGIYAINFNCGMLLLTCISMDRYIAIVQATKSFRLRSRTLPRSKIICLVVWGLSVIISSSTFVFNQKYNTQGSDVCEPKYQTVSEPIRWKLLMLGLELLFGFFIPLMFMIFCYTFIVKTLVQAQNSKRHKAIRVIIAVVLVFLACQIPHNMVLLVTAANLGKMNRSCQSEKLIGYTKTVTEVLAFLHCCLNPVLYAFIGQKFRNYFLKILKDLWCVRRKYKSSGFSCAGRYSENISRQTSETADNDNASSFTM
Description: Human CCR6-CRE Reporter Assay
293FT cells were transfected with 2 constructs using TransIT-293 (Mirus). The first construct (pGL4.29, Promega) expressed the luciferase reporter gene luc2P in response to the binding of cAMP-induced CREB to the CREelement in its promoter. The second construct contained the open reading frame of human CCR6 in the pUNO1 backbone under the control of an enhanced CMV promoter (InVivoGen). 48 h after transfection, cells were harvested and diluted to 750,000 cells/ml in culture medium (DMEM, 10% FBS, 1× pen/strep (Gibco 15140)). Compounds were 2.5-fold serially diluted in DMSO. Further dilutions were made in assay medium (DMEM, 10% FBS, 1× pen/strep, 6 μM Forskolin, 6 nM CCL20). 4 μl of the compound solution was added to a white MW384 plate, followed by 20 μl of the cell suspension. Final DMSO concentration in the assay was 0.1%. The MW384 plate was placed in an incubator at 37° C., 5% CO2 for 5 h. Luciferase activity was determined by addition of 24 μl of a 2.5× diluted BriteLite luciferase solution (Perkin Elmer), followed by luminescence measurement using a VICTOR Plate reader (Perkin Elmer). […] The relative −Log IC50 was determined with GraphPad Prism 9 using a four-parameter dose-response model.

**Q.** N=S(=O)(c1ccc(-c2ccc3n[nH]c(=O)n3c2)cc1)[C@H]1CC[C@H](Nc2ccc(S(F)(F)(F)(F)F)cc2)CC1 (stereo partly drawn) [Example 119, 6-(4-{[trans-4-{[4-(pentafluoro-λ^6-sulfanyl)phenyl]Amino}cyclohexyl]sulfonimidoyl}phenyl)-2H,3H-[1,2,4]triazolo[4,3-a]pyridin-3-one] was tested. Which IC50 did it give?
**A.** 316 nM

**Q.** Which IC50 does the source give for Cc1cn2cc(-c3ccc(S(=N)(=O)[C@H]4CC[C@H](Nc5ccc(S(F)(F)(F)(F)F)cc5)CC4)cc3)ncc2n1 (stereo partly drawn) [Example 103, (4-{2-methylimidazo[1,2-a]pyrazin-6-yl}phenyl)[trans-4-{[4-(pentafluoro-λ^6-sulfanyl)phenyl]Amino}cyclohexyl](imino)-λ^6-sulfanone] here?
**A.** 1260 nM

**Q.** With O=S(=O)(c1ccc(-c2ccc3nccn3c2)cn1)N1CCC(Nc2ccc(S(F)(F)(F)(F)F)cc2)CC1 [Example 75, 1-[(5-{imidazo[1,2-a]pyridin-6-yl}pyridin-2-yl)sulfonyl]-N-[4-(pentafluoro-λ^6-sulfanyl)phenyl]piperidin-4-amine] as the compound, how does the IC50 read?
**A.** 1000 nM

**Q.** With Cc1nnc2cc(-c3ccc(S(=N)(=O)[C@H]4CC[C@H](Nc5ccc(S(F)(F)(F)(F)F)cc5)CC4)cc3)ccn12 (stereo partly drawn) [Example 104, (4-{3-methyl-[1,2,4]triazolo[4,3-a]pyridin-7-yl}phenyl)[trans-4-{[4-(pentafluoro-λ^6-sulfanyl)phenyl]Amino}cyclohexyl](imino)-λ^6-sulfanone] as the compound, how does the IC50 read?
**A.** 398 nM

**Q.** With NC(=O)c1ccc(-c2ccc(S(=O)(=O)[C@H]3CC[C@H](Nc4ccc(S(F)(F)(F)(F)F)cc4)CC3)cc2)nn1 [Example 62, 6-(4-{[trans-4-{[4-(pentafluoro-λ^6-sulfanyl)phenyl]Amino}cyclohexyl]sulfonyl}phenyl)pyridazine-3-carboxamide] as the compound, how does the IC50 read?
**A.** 398 nM

**Q.** For O=S(=O)(c1ccc(-c2ccc3nccn3c2)c(F)c1)N1CCC(Nc2ccc(S(F)(F)(F)(F)F)cc2)CC1 [Example 72, 1-(3-fluoro-4-{imidazo[1,2-a]pyridin-6-yl}benzenesulfonyl)-N-[4-(pentafluoro-λ^6-sulfanyl)phenyl]piperidin-4-amine], which IC50 is on record?
**A.** 1580 nM

**Q.** For Cc1cc(-c2ccc(S(=O)(=O)[C@H]3CC[C@H](Nc4ccc(S(F)(F)(F)(F)F)cn4)CC3)cc2)cn2c(C(C)C)nnc12 [Example 181, 5-(pentafluoro-λ^6-sulfanyl)-N-[trans-4-{4-[8-methyl-3-(propan-2-yl)-[1,2,4]triazolo[4,3-a]pyridin-6-yl]benzenesulfonyl}cyclohexyl]pyridin-2-amine], which IC50 is on record?
**A.** 25.1 nM

**Q.** O=S(=O)(c1ccc(-c2ccc3nnc([C@@H]4CCNC4)n3c2)cc1)N1CCC(Nc2ccc(S(F)(F)(F)(F)F)cc2)CC1 [Example 165, N-[4-(pentafluoro-λ^6-sulfanyl)phenyl]-1-(4-{3-[(3R)-pyrrolidin-3-yl]-[1,2,4]triazolo[4,3-a]pyridin-6-yl}benzenesulfonyl)piperidin-4-amine] was tested. Which IC50 did it give?
**A.** 794 nM

**Q.** Which IC50 does the source give for N#Cc1cnc2ccc(-c3ccc(S(=O)(=O)[C@H]4CC[C@@H](Nc5ccc(S(F)(F)(F)(F)F)cc5)CC4)cc3)cn12 [Example 17, 6-(4-{[cis-4-{[4-(pentafluoro-λ^6-sulfanyl)phenyl]Amino}cyclohexyl]sulfonyl}phenyl)imidazo[1,2-a]pyridine-3-carbonitrile] here?
**A.** 794 nM

**Q.** How did the IC50 turn out when N#Cc1c[nH]c2ccc(-c3ccc(S(=N)(=O)N4CCC(Nc5ccc(S(F)(F)(F)(F)F)cc5)CC4)cc3)cc12 (stereo not drawn) [Example 120, 5-{4-[(4-{[4-(pentafluoro-λ^6-sulfanyl)phenyl]Amino}piperidin-1-yl)sulfonimidoyl]phenyl}-1H-indole-3-carbonitrile] was run?
**A.** 63.1 nM

**Q.** For O=c1[nH]cnn2cc(-c3ccc(S(=O)(=O)[C@H]4CC[C@H](Nc5ccc(S(F)(F)(F)(F)F)cc5)CC4)cc3)cc12 [Example 55, 6-(4-{[trans-4-{[4-(pentafluoro-λ^6-sulfanyl)phenyl]Amino}cyclohexyl]sulfonyl}phenyl)-3H,4H-pyrrolo[2,1-f][1,2,4]triazin-4-one], which IC50 is on record?
**A.** 31.6 nM

**Q.** For N=S(=O)(c1ccc(-c2ccc3c(c2)CCNC3=O)cc1)[C@H]1CC[C@H](Nc2ccc(S(F)(F)(F)(F)F)cc2)CC1 (stereo partly drawn) [Example 113, 6-(4-{[trans-4-{[4-(pentafluoro-λ^6-sulfanyl)phenyl]Amino}cyclohexyl]sulfonimidoyl}phenyl)-1,2,3,4-tetrahydroisoquinolin-1-one], which IC50 is on record?
**A.** 316 nM

**Q.** How did the IC50 turn out when N=S(=O)(c1ccc(-c2ccn3ncnc3c2)cc1)[C@H]1CC[C@H](Nc2ccc(S(F)(F)(F)(F)F)cc2)CC1 (stereo partly drawn) [Example 94, [trans-4-{[4-(pentafluoro-λ^6-sulfanyl)phenyl]Amino}cyclohexyl](4-{[1,2,4]triazolo[1,5-a]pyridin-7-yl}phenyl)(imino)-λ^6-sulfanone] was run?
**A.** 501 nM

**Q.** How did the IC50 turn out when Cc1n[nH]c2ccc(-c3ccc(S(=O)(=O)[C@H]4CC[C@@H](Nc5ccc(S(F)(F)(F)(F)F)cc5)CC4)cc3)cc12 [Example 5, 4-(pentafluoro-λ^6-sulfanyl)-N-[cis-4-[4-(3-methyl-2H-indazol-5-yl)benzenesulfonyl]cyclohexyl]aniline] was run?
**A.** 501 nM

**Q.** Which IC50 does the source give for O=S(=O)(c1ccc(-c2ncc3[nH]ccc3n2)cc1)[C@H]1CC[C@H](Nc2ccc(S(F)(F)(F)(F)F)cc2)CC1 [Example 145, 4-(pentafluoro-λ^6-sulfanyl)-N-[trans-4-(4-{5H-pyrrolo[3,2-d]pyrimidin-2-yl}benzenesulfonyl)cyclohexyl]aniline] here?
**A.** 1580 nM

**Q.** Cc1cnc2ccc(-c3ccc(S(=O)(=O)N4CCC(Nc5ccc(S(F)(F)(F)(F)F)cc5)CC4)nc3)cn12 [Example 70, 1-[(5-{3-methylimidazo[1,2-a]pyridin-6-yl}pyridin-2-yl)sulfonyl]-N-[4-(pentafluoro-λ^6-sulfanyl)phenyl]piperidin-4-amine] was tested. Which IC50 did it give?
**A.** 1260 nM

**Q.** With N#Cc1cnc2ccc(-c3ccc(S(=O)(=O)N4CCC(Nc5ccc(S(F)(F)(F)(F)F)cc5)CC4)nc3)cn12 [Example 78, 6-{6-[(4-{[4-(pentafluoro-λ^6-sulfanyl)phenyl]Amino}piperidin-1-yl)sulfonyl]pyridin-3-yl}imidazo[1,2-a]pyridine-3-carbonitrile] as the compound, how does the IC50 read?
**A.** 1580 nM

**Q.** Which IC50 does the source give for N#Cc1ccc(-c2ccc(S(=N)(=O)N3CCC(Nc4ccc(S(F)(F)(F)(F)F)cc4)CC3)cc2)cc1 (stereo not drawn) [Example 122, 4′-[(4-{[4-(pentafluoro-λ^6-sulfanyl)phenyl]Amino}piperidin-1-yl)sulfonimidoyl]-[1,1′-biphenyl]-4-carbonitrile] here?
**A.** 398 nM

**Q.** For N#Cc1c[nH]c2ccc(-c3ccc(S(=O)(=O)[C@H]4CC[C@@H](Nc5ccc(S(F)(F)(F)(F)F)cc5)CC4)cc3)cc12 [Example 8, 5-(4-{[cis-4-{[4-(pentafluoro-λ^6-sulfanyl)phenyl]Amino}cyclohexyl]sulfonyl}phenyl)-1H-indole-3-carbonitrile], which IC50 is on record?
**A.** 1260 nM

**Q.** With N=S(=O)(c1ccc(-c2ccc3c(c2)CNC3=O)cc1)[C@H]1CC[C@H](Nc2ccc(S(F)(F)(F)(F)F)cc2)CC1 (stereo partly drawn) [Example 112, 5-(4-{[trans-4-{[4-(pentafluoro-λ^6-sulfanyl)phenyl]Amino}cyclohexyl]sulfonimidoyl}phenyl)-2,3-dihydro-1H-isoindol-1-one] as the compound, how does the IC50 read?
**A.** 398 nM

**Q.** With Cc1cnc2ccc(-c3ccc(S(=O)(=O)N4CCC(Nc5ccc(S(F)(F)(F)(F)F)cc5)CC4)cc3F)cn12 [Example 68, 1-(3-fluoro-4-{3-methylimidazo[1,2-a]pyridin-6-yl}benzenesulfonyl)-N-[4-(pentafluoro-λ^6-sulfanyl)phenyl]piperidin-4-amine] as the compound, how does the IC50 read?
**A.** 1000 nM
